From patent US8541379B2 (Ajinomoto Co., Inc., priority 2009, dated 2013)
Marks after values point to notes of the source that are not given here.

Assay: Paired comparison sensory test, solution of tomato catsup
Type: in vivo, human
Details: 33.3% tomato catsup solution, N=9, significant level of 1%
Protocol: More specifically, the sensory evaluation test was carried out according to the following procedures: Commercially available tomato catsup for popular use was dispersed in hot water in a concentration of 33.3% by mass to thus form a solution of tomato catsup. This solution was admixed with γ-Glu-Nva, γ-Glu-Cys-Gly, or γ-Glu-Abu as a test compound. According to the paired comparison test method (pair test), the panelists were requested to comparatively evaluate the following three samples and to judge whether “any of them was preferred or favorable since it could enhance the flavor and taste of the solution of tomato catsup without changing the balance between them”: (1) 0.02% by mass of γ-Glu-Cys-Gly whose kokumi-imparting activity was identical to 0.0004% by mass of γ-Glu-Nva; (2) 0.0004% by mass of γ-Glu-Abu, the amount of which was identical to 0.0004% by mass of γ-Glu-Nva; (3) 0.003% by mass of γ-Glu-Abu whose kokumi-imparting activity was identical to that observed for 0.0004% by mass of γ-Glu-Nva. The panelists used in this test were persons who had been engaged in the development of seasonings for foods over not less than one year of the cumulative time period and who could judge that the difference in the titer between γ-Glu-Cys-Gly and γ-Glu-Val-Gly added to a solution having umami/salty taste was about 10 times (while confirming the ability of these persons at regular intervals). The evaluation was carried out at N (the number of panelists used)=9.
However, the results observed for tomato catsup are shown in Table 6 as the typical example thereof.

Measured: No. of Panelists who judged γ-Glu-Nva rather preferred

CCC[C@H](NC(=O)CC[C@H](N)C(=O)O)C(=O)O [γ-Glu-Nva, γ-L-glutamyl-L-norvaline]
9/9**: 0.0004 wt % γ-Glu-Nva vs 0.0004 wt % γ-Glu-Abu | 0.0004 wt % γ-Glu-Nva vs 0.003 wt % γ-Glu-Abu | 0.0004 wt % γ-Glu-Nva vs 0.02 wt % γ-Glu-Cys-Gly
